Measured values from US8044198B2, “Sirtuin modulating compounds” (Sirtris Pharmaceuticals, Inc., priority 2005, dated 2011).

Target: T1, SIRT1 (Homo sapiens, UniProt Q96EB6)
T1 sequence (Q96EB6 1-747): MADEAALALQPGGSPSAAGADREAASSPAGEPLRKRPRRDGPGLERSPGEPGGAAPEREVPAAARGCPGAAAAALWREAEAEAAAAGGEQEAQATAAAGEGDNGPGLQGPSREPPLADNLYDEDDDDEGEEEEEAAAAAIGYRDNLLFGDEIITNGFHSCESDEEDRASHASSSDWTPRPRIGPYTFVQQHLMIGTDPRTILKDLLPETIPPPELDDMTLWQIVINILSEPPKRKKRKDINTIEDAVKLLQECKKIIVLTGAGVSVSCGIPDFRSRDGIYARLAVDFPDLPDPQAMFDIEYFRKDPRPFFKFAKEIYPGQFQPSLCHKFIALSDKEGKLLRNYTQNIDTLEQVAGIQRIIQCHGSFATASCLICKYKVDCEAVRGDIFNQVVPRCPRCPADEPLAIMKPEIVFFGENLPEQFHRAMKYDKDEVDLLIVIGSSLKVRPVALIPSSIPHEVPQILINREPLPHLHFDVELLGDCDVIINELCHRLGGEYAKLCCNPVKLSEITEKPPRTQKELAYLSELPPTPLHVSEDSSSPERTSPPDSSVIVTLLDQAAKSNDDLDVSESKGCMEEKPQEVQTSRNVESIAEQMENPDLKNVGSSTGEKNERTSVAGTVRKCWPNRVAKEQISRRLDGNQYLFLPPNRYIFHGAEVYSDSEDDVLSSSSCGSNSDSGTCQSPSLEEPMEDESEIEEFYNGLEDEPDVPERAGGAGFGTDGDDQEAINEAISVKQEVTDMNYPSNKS
Assay: SIRT1 mass spectrometry (MS) based deacetylation assay; as to FOLD ACT. MS: test concentration or dose not given here
Format: biochemical
Details: for EC50: SIRT1 activation, mass spectrometry assay, read-out: ED50 MS ASSAY

[1] = fold activation of SIRT1 as determined by MS
[2] = fold activation of SIRT1, mass spectrometry assay

SMILES | EC50 | FOLD ACT. MS [1] | FOLD ACT. MS [2]
COc1ccc(C(=O)Nc2ccccc2-c2cn3ccsc3n2)cc1OC [Compound 203] | < 5 µM | B (B (Fold Activation <250%)) | –
COc1cc(C(=O)Nc2ccccc2-c2cn3ccsc3n2)cc(OC)c1OC [Compound 204] | < 5 µM | A (A (Fold activation >250%)) | –
COc1ccc(C(=O)Nc2ccccc2-c2cn3c(CN(C)C)csc3n2)cc1OC [Compound 205] | 5 to 50 µM | A (A (Fold activation >250%)) | –
COc1cc(C(=O)Nc2ccccc2-c2cn3c(CN(C)C)csc3n2)cc(OC)c1OC [Compound 206] | 5 to 50 µM | A (A (Fold activation >250%)) | –
COc1ccc(C(=O)Nc2ccccc2-c2cn3c(CN4CCNCC4)csc3n2)cc1OC [Compound 207] | 5 to 50 µM | A (A (Fold activation >250%)) | –
COc1cc(C(=O)Nc2ccccc2-c2cn3c(CN4CCNCC4)csc3n2)cc(OC)c1OC [Compound 208] | 5 to 50 µM | A (A (Fold activation >250%)) | –
COc1ccc(C(=O)Nc2ccccc2-c2cn3c(CN4CCOCC4)csc3n2)cc1OC [Compound 209] | 5 to 50 µM | A (A (Fold activation >250%)) | –
COc1cc(C(=O)Nc2ccccc2-c2cn3c(CN4CCOCC4)csc3n2)cc(OC)c1OC [Compound 210] | 5 to 50 µM | B (B (Fold Activation <250%)) | –
COc1ccc(C(=O)Nc2cccc(-c3nc4ccccc4[nH]3)c2)c(OC)c1 [Compound 211] | < 5 µM | B (B (Fold Activation <250%)) | –
COc1cccc(C(=O)Nc2cccc(-c3nc4cccnc4s3)c2)c1 [Compound 212] | 5 to 50 µM | B (B (Fold Activation <250%)) | –
COc1ccc(C(=O)Nc2cccc(-c3nc4cccnc4s3)c2)c(OC)c1 [Compound 213] | < 5 µM | B (B (Fold Activation <250%)) | –
COc1cccc(C(=O)Nc2cccc(-c3nc4cccnc4s3)c2)c1OC [Compound 214] | 5 to 50 µM | B (B (Fold Activation <250%)) | –
COc1cc(OC)cc(C(=O)Nc2cccc(-c3nc4cccnc4s3)c2)c1 [Compound 215] | < 5 µM | B (B (Fold Activation <250%)) | –
COc1ccc(C(=O)Nc2cccc(-c3nc4cccnc4s3)c2)cc1 [Compound 216] | < 5 µM | B (B (Fold Activation <250%)) | –
COc1cc(C(=O)Nc2cccc(-c3nc4cccnc4s3)c2)cc(OC)c1OC [Compound 217] | < 5 µM | A (A (Fold activation >250%)) | –
COc1cc(C(=O)Nc2cccc(-c3cn4cccnc4n3)c2)cc(OC)c1OC [Compound 218] | < 5 µM | – | A (A (Fold activation >250%))
COc1cc(C(=O)Nc2cccc(-c3nc4ncccn4c3C)c2)cc(OC)c1OC [Compound 219] | 5 to 50 µM | – | A (A (Fold activation >250%))
O=C(Nc1cccc(-c2nc3ccncc3s2)c1)c1ccco1 [Compound 221] | 5 to 50 µM | – | B (B (Fold Activation <250%))
O=C(Nc1cccc(-c2nc3ccncc3s2)c1)c1cccnc1Cl [Compound 222] | 5 to 50 µM | – | B (B (Fold Activation <250%))
O=C(Nc1cccc(-c2nc3ccncc3s2)c1)c1cccs1 [Compound 223] | < 5 µM | – | B (B (Fold Activation <250%))
Cc1cc(C(=O)Nc2cccc(-c3nc4ccncc4s3)c2)n(C(C)(C)C)n1 [Compound 228] | 5 to 50 µM | – | A (A (Fold activation >250%))
O=C(Nc1cccc(-c2nc3ccncc3s2)c1)c1ccc(-c2ccccc2)o1 [Compound 241] | < 5 µM | – | B (B (Fold Activation <250%))
O=C(Nc1cccc(-c2nc3ccncc3s2)c1)c1ccccc1Oc1ccccc1 [Compound 245] | < 5 µM | – | B (B (Fold Activation <250%))
Cn1nc(C(C)(C)C)cc1C(=O)Nc1cccc(-c2nc3ccncc3s2)c1 [Compound 246] | < 5 µM | – | B (B (Fold Activation <250%))
O=C(Nc1cccc(-c2nc3ccncc3s2)c1)c1cc(C(F)(F)F)ccc1C(F)(F)F [Compound 248] | 5 to 50 µM | – | B (B (Fold Activation <250%))
COc1ccc(C(=O)Nc2ccccc2-c2cc3ccccc3[nH]2)cc1OC [Compound 254] | < 5 µM | – | B (B (Fold Activation <250%))

SMILES | EC50 | FOLD ACT. MS [1] | FOLD ACT. MS [2]
COc1cc(C(=O)Nc2ccccc2-c2cc3ccccc3[nH]2)cc(OC)c1OC [Compound 255] | < 5 µM | – | B (B (Fold Activation <250%))
COC(=O)c1ccc(-n2cncn2)c(NC(=O)c2ccc(OC)c(OC)c2)c1 [Compound 258] | 5 to 50 µM | – | B (B (Fold Activation <250%))
COc1cc(C(=O)Nc2cccc(-c3nc4ccccc4[nH]3)n2)cc(OC)c1OC [Compound 259] | < 5 µM | – | A (A (Fold activation >250%))
COc1ccc(C(=O)Nc2cccc(-c3nc4ccccc4[nH]3)n2)cc1OC [Compound 260] | < 5 µM | – | A (A (Fold activation >250%))
COc1ccc(C(=O)Nc2ccc(-c3nc4ccccc4[nH]3)cc2)c(OC)c1 [Compound 262] | < 5 µM | – | B (B (Fold Activation <250%))
COc1cc(C(=O)Nc2ccc(-c3nc4ccccc4[nH]3)cc2)cc(OC)c1OC [Compound 263] | 5 to 50 µM | – | B (B (Fold Activation <250%))
COc1ccc(C(=O)Nc2ccccc2-c2cn3ccccc3n2)c(OC)c1 [Compound 265] | 5 to 50 µM | – | B (B (Fold Activation <250%))
COc1ccc(C(=O)Nc2ccccc2-c2cn3ccccc3n2)cc1OC [Compound 266] | < 5 µM | – | A (A (Fold activation >250%))
COc1cc(C(=O)Nc2ccccc2-c2cn3ccccc3n2)cc(OC)c1OC [Compound 267] | < 5 µM | – | B (B (Fold Activation <250%))
CN(C)c1cccc(C(=O)Nc2ccccc2-c2cn3ccccc3n2)c1 [Compound 268] | < 5 µM | – | B (B (Fold Activation <250%))
COc1ccc(C(=O)Nc2ccccc2-c2cn3cc(CN4CCNCC4)sc3n2)cc1OC [Compound 270] | 5 to 50 µM | – | A (A (Fold activation >250%))
COc1cc(C(=O)Nc2ccccc2-c2cn3cc(CN4CCNCC4)sc3n2)cc(OC)c1OC [Compound 271] | < 5 µM | – | A (A (Fold activation >250%))
COc1ccc(C(=O)Nc2cccc(-c3nc4cnccc4s3)c2)c(OC)c1 [Compound 272] | < 5 µM | – | B (B (Fold Activation <250%))
COc1cc(C(=O)Nc2cccc(-c3nc4cnccc4s3)c2)cc(OC)c1OC [Compound 273] | 5 to 50 µM | – | A (A (Fold activation >250%))
COc1ccc(C(=O)Nc2ncccc2-c2nc3ccccc3[nH]2)cc1OC [Compound 276] | < 5 µM | – | B (B (Fold Activation <250%))
CC(=O)Nc1ccc(S(=O)(=O)Nc2cccc(-c3nc4ccncc4s3)c2)cc1 [Compound 288] | 5 to 50 µM | – | B (B (Fold Activation <250%))
COc1ccc(S(=O)(=O)Nc2cccc(-c3nc4ccncc4s3)c2)cc1OC [Compound 289] | 5 to 50 µM | – | B (B (Fold Activation <250%))
COc1cc(C(=O)N(C)c2ccccc2-c2nc3ncccc3o2)cc(OC)c1OC [Compound 292, 3,4,5-Trimethoxy-N-methyl-N-(2-oxazolo[4,5-b]pyridin-2-yl-phenyl)-benzamide] | > 150 µM | – | –
COc1cc(C(=O)Nc2ccccc2-c2nc3ccccc3[nH]2)cc(OC)c1OC [Compound 293] | < 5 µM | – | A (A (Fold activation >250%))
COc1ccc(C(=O)Nc2ccc(-c3nc4ccccc4[nH]3)cc2)cc1OC [Compound 294] | < 5 µM | – | B (B (Fold Activation <250%))
COc1ccc(C(=O)Nc2cccc(-c3nc4cnccc4o3)c2)c(OC)c1 [Compound 296] | 5 to 50 µM | – | B (B (Fold Activation <250%))
COc1cc(OC)cc(C(=O)Nc2cccc(-c3nc4cnccc4o3)c2)c1 [Compound 297] | 5 to 50 µM | – | B (B (Fold Activation <250%))
COc1cc(C(=O)Nc2cccc(-c3nc4cnccc4o3)c2)cc(OC)c1OC [Compound 298] | 5 to 50 µM | – | B (B (Fold Activation <250%))
CN(C)c1ccc(C(=O)Nc2cccc(-c3nc4cnccc4o3)c2)cc1 [Compound 299] | 5 to 50 µM | – | B (B (Fold Activation <250%))
Cc1cc(C(=O)Nc2cccc(-c3nc4ccncc4s3)c2)no1 [Compound 304] | < 5 µM | – | B (B (Fold Activation <250%))
O=C(Nc1cccc(-c2nc3ccncc3s2)c1)c1ccc(Oc2ccccc2)nc1 [Compound 306] | 5 to 50 µM | – | B (B (Fold Activation <250%))
